Measured values as given in paper PMC10338423, “Synthesis and preclinical evaluation of a novel fluorine-18 labeled small-molecule PET radiotracer for imaging of CXCR3 receptor in mouse models of atherosclerosis” (EJNMMI Research, 2023).

Columns and labels:
CXCR3 = molecular target: T1, CXCR3 (Mus musculus, UniProt O88410); assay: PET/CT imaging, baseline and self-blocking, in C57BL/6 control mice on normal diet; format: in vivo
T1 construct: tissue Jackson Laboratory (mice); host or cells: In vivo: atherosclerotic abdominal aorta and brown adipose tissue of ApoE KO mice (high-fat diet) and C57BL/6 control mice (normal diet)
T1 sequence (O88410 1-367): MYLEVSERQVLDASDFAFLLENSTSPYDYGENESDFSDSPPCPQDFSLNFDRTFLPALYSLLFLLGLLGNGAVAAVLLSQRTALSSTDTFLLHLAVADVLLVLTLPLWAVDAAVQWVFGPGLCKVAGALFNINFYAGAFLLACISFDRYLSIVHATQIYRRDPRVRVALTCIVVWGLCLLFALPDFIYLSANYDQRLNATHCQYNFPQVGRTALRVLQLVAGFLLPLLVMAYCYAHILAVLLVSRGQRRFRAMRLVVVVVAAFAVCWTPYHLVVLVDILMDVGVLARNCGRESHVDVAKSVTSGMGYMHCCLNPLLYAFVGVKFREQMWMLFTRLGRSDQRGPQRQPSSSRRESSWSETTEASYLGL
Description: [^18F]1 was further evaluated for reliability as a CXCR3 radiotracer using mouse models of atherosclerosis. For this purpose, we tested [^18F]1 in ApoE KO mice, a widely used murine model of atherosclerosis. Six-week-old ApoE KO male mice (N = 6) and C57BL/6 male control mice (i.e., a background strain of ApoE KO mouse, ApoE-wildtype control; N = 6) were purchased from Jackson Laboratory (Bar Harbor, ME). The ApoE KO mice were placed on a high-fat diet over 12 weeks to accelerate atherosclerosis development. […] At 12 weeks, PET/computed tomography (CT) studies were performed using both mice groups. Dynamic PET scans (90 min acquisition) were performed beginning 5 min after the intravenous injection of [^18F]1 followed by a ~ 10 min CT scan. Usually, one week after the baseline PET/CT scan, the corresponding blocking PET/CT scan was performed. This time, 1·HCl salt (5 mg/kg) was used as a blocking agent and intravenously injected 5 min before the radiotracer injection.
All animal studies were performed at the VA Biomolecular Imaging Center (VA BIC) at the Harry S. Truman Memorial Veterans’ Hospital (Columbia, MO). Six-week-old ApoE KO male mice and C57BL/6 control male mice were purchased from Jackson Laboratory. All mice were housed in the controlled vivarium during the studies. All ApoE KO mice were fed with high-fat chow that contained 42% fat, 34% of that contained unsaturated fat (TD.88137, Envigo, Indianapolis, IN), one week after the arrival and continued the feeding until the end of the study. The first PET/CT scans were performed 12 weeks after initiating the high-fat diet, and the second PET/CT scans that used 1·HCl as a blocking agent were performed at least one week after the first PET/CT scans. Meanwhile, C57BL/6 control mice were fed with normal chow over the same schedule to match with ApoE KO mice.
Maximum intensity micro-PET images were obtained on a Siemens INVEON small-animal PET/CT scanner (Siemens Medical Solutions USA, Inc., Malvern, PA). […] The micro-PET data was analyzed using Siemens Inveon Research Workplace, General Analysis software. […]

[1] = Biodistribution study in normal C57BL/6 mice; format: in vivo, mouse
Experimental: Biodistribution studies were also performed to discover the drug distribution within normal mice. 17-week-old male and female C57BL/6 mice were purchased to match the age of the imaging study group. [^18F]1 was intravenously injected into these mice (N = 4/time point), then they were sacrificed at 10, 30, and 60 min after the injection. Their major organs, including the brain, blood, lung, liver, stomach, heart, spleen, kidney, muscle, bone, large intestine, small intestine, aorta, liquinal lymph nodes (LN), interscapular BAT, and tail, were harvested. Their radioactivity was counted by an automated γ-counter. The biodistribution was calculated as an average of the percent injected dose per gram tissue (%ID/g tissue) where the counted radioactivity of each organ was divided by the weight of each tissue and the total radioactivity that circulated in the mouse body at the time of the euthanasia.
Seventeen-week-old male and female C57BL/6 mice were purchased to match the age of PET imaging mice. They were anesthetized in the anesthesia chamber using 3% isoflurane in oxygen and received 0.74–1.11 MBq of [^18F]1 in 100 μL of 5–10% EtOH in saline containing 0.5% sodium ascorbate. The injected mice were returned to their cages and free until the time of the study. At 10, 30, and 60 min after the [^18F]1 administration, each mouse (N = 4/time point) was anesthetized again and euthanized by cervical dislocation followed by cardiac puncture to take a blood sample. Then, the following organs were harvested: the brain, blood, heart, liver, lung, stomach, large intestine, small intestine, spleen, kidney, bone, muscle, liquinal LN, interscapular BAT, and tail. The radioactivity of each organ was counted by a PerkinElmer Wallac 1480 Wizard^3 Gamma Counter (Waltham, MA). The whole radioactivity that went into the circulation of the mouse was calculated by subtracting the residual radioactivity in the tail from the injected radioactivity. Therefore, the biodistribution was calculated as an average of the percent injected dose per gram of tissue (%ID/g tissue) by dividing the measured radioactivity by the whole radioactivity that actually went into the body and the weight of the tissue.

[2] = 1·HCl 5 mg/kg i.v. 5 min before tracer
[3] = 10 min p.i., i.v., C57BL/6 mice

blocking effect in BAT (from AUC of TACs) (CXCR3; [2]): 45.9%
blocking effect in abdominal aorta (from AUC of TACs) (CXCR3; [2]): 4.7%
standard uptake value (SUV), BAT region (CXCR3; blocking study with 1·HCl 5 mg/kg i.v., stated for both groups): 1.2–1.5
uptake in BAT [1, 3]: 15 % ID/g
uptake in aorta [1, 3]: 13 % ID/g
uptake in heart [1, 3]: 12 % ID/g
uptake in kidney [1, 3]: 22 % ID/g
uptake in liver [1, 3]: 12 % ID/g
uptake in lung [1, 3]: 27 % ID/g
uptake remaining relative to 10 min p.i. (lung, kidney, BAT, aorta, heart) ([1]; 30 min p.i.): ~ 60%
uptake in liver ([1]; 30 min p.i., i.v., C57BL/6 mice): 22 % ID/g
uptake remaining relative to 10 min p.i. (lung, kidney, BAT, aorta, heart) ([1]; 60 min p.i.): ~ 40%
Structure (SMILES): CC[C@H]1CN(c2ncc(-c3nnco3)cc2Cl)CCN1C1CCN(Cc2ccc(Cl)cc2[18F])CC1 [[^18F]1]
